Consider three molecules from paper PMC9222373 (2022).

The test has as its system Apt-5 (unlabelled) (DNA, aptamer) AGCAGCACAGAGGTCAGATGGGATGTGAGGTGGCTCTCGTATCTATAGATTTTGGCGAGACCTATGCGTGCTACCGTGAA
Briefly: AuNP aggregation colorimetry. As to conditions: NaCl added after incubation (75 mM optimised); 37 °C, 1 h; 10 ng/mL toxin; 200 nM aptamer stock; insignificant colour change.
For the molecule `C[C@@H]1Cc2c(Cl)cc(C(=O)N[C@@H](Cc3ccccc3)C(=O)O)c(O)c2C(=O)O1`, the binding entry is reported as “no”.
To `CCCC[C@@H](C)[C@@H](OC(=O)C[C@@H](CC(=O)O)C(=O)O)[C@H](C[C@@H](C)C[C@H](O)CCCC[C@@H](O)C[C@H](O)[C@H](C)N)OC(=O)C[C@@H](CC(=O)O)C(=O)O` belongs “no”; to `C[C@H]1CCCC(=O)CCC/C=C/c2cc(O)cc(O)c2C(=O)O1`, “no”.
